Entries after “also recorded” stand apart in the source; their conditions may differ. Read-outs that look alike come from different tables or passages of the source.
Legend:
rat Abcg2 [1] = target: T1, rat Abcg2 (Rattus norvegicus, UniProt Q80W57); assay type: cell-based
T1 sequence (Q80W57 1-657): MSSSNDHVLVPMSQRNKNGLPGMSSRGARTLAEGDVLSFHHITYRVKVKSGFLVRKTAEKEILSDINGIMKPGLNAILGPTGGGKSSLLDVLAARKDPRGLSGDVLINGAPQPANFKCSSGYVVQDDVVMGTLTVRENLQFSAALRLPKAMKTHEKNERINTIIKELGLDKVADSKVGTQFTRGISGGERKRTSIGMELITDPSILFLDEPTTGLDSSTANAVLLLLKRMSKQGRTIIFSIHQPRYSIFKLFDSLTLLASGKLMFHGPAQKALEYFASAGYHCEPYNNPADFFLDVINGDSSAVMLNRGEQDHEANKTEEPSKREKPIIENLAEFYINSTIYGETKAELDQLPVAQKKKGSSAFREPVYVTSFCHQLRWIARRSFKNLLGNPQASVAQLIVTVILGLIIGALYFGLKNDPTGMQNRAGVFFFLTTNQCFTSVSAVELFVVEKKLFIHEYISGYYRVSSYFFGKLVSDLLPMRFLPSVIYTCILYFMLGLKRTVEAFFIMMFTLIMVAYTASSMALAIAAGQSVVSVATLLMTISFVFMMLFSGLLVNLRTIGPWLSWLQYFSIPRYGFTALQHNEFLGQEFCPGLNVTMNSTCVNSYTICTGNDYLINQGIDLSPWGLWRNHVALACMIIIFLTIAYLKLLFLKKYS

murine Bcrp1 = details: polarized cell lines; ref Merino et al., 2005; cited from earlier work
human BCRP = details: polarized cell lines; ref Merino et al., 2005; cited from earlier work
Bcrp1 = details: ref Merino et al., 2005, cited from earlier work
human ABCG2 = details: read-out: IC50 on efflux or accumulation; cell lines transfected with human ABCG2; ref Ahmed-Belkacem et al., 2005; Pan et al., 2007; cited from earlier work
Abcg2 [2] = assay: GF120918 "chemical knockout" of nitrofurantoin transfer into rat milk; assay type: in vivo, Sprague Dawley rat; details: GF120918 10 mg/kg treated group vs control; lactating rats
rat Abcg2 [3] = target: T1, rat Abcg2; assay: Hoechst 33342 accumulation in MDCKII-rAbcg2 cells; assay type: cell-based; details: 1 μM GF120918, 10μM Hoechst 33342
Abcg2 [4] = details: wild-type and P-gp deficient mice; ref Cisternino et al., 2004; cited from earlier work
[5] = MDCKII-rat Abcg2 vs MDCKII-empty cells, 10μM nitrofurantoin

## O=C1CN(/N=C/c2ccc([N+](=O)[O-])o2)C(=O)N1 [nitrofurantoin, Nitrofurantoin]
Rat Abcg2 [1]; [5]
  decrease in basolateral transport: 55%
  increase in apical directed transport: 7.5 fold
Murine Bcrp1
  transport by murine Bcrp1: efficiently transported
Human BCRP
  transport by human BCRP: efficiently transported
Bcrp1; intravenous administration
  area under the concentration time curve, Bcrp1 knockout vs wild-type mice: 2 fold
Bcrp1; oral administration
  area under the concentration time curve, Bcrp1 knockout vs wild-type mice: 4 fold

## COc1cc2c(cc1OC)CN(CCc1ccc(NC(=O)c3cccc4c(=O)c5cccc(OC)c5[nH]c34)cc1)CC2 [GF120918, N-(4-[2-(1,2,3,4-tetrahydro-6,7-dimethoxy-2-isoquinolinyl)ethyl]-phenyl)-9,10-dihydro-5-methoxy-9-oxo-4-acridine carboxamide]
Human ABCG2
  IC50: ~300 nM
Rat Abcg2 [1]; 1 μM GF120918, MDCKII-rAbcg2 cells
  effect on nitrofurantoin transport/efflux by rat Abcg2: largely reversed; also recorded: effectively inhibit
Abcg2 [2]
  reduction in the M/S of nitrofurantoin: 93%
Rat Abcg2 [3]
  effect on Hoechst 33342 efflux phenotype (reduced accumulation): reversed; also recorded: effectively inhibit

## O=C1c2c(O)ccc(O)c2C(=O)c2c(NCCNCCO)ccc(NCCNCCO)c21 [mitoxantrone]
Abcg2 [4]
  accumulation in the presence of GF120918: significantly increased
